Results taken from US10251958B2 (NEWSOUTH INNOVATIONS PTY LIMITED, priority 2013, dated 2019).
pIC50: −log10 of the molar value. Oligonucleotides are written 5' to 3', each unit as a sugar letter and its base; * is a phosphorothioate linkage, no mark a phosphodiester; rarer units and linkages stand in square brackets, end groups in braces. Plain capitals give the bases only. d = 2'-deoxy (DNA)

Experiments:
[1] = DLS hydrodynamic diameter of BSA conjugated copolymer (Example 2); format: physicochemical; conditions: for PDi: 0.1M PBS pH 7, DLS
Description: ^1H-NMR spectra were acquired to characterised compounds using CDCl3 or d-DMSO with a 300 MHz spectrometer. Thermogravimetric analysis (TGA) was carried out using TG5000 to quantify the amount of platinum conjugated to the copolymers. The sample (≤5 mg) was placed on a thermo-balance and heated from room temperature to 600° C. at 20° C./min, and held for an isothermal period of 60 minutes under nitrogen atmosphere. Diameter size of copolymers in 0.1M PBS buffer pH 7.0 was measured using a Malvern dynamic light scattering instrument (DLS) in a disposable plastic cuvette (1 cm path length). Fluorescence measurements were performed on Agilent Cary Eclipse Fluorescence Spectrometer using a 1 cm quartz cuvette. Fluorescence spectra were recorded between 400-800 nm at λex=495 nm, λem=520 nm with entrance and exit slit width of […]. SDS-PAGE was performed using standard techniques using a premixed electrophoresis buffer which contains 25 mM Tris, 192 mM glycine and 0.1% SDS (Tris/Glycine/SDS buffer) to determine the conjugation efficiency between the BSA-FITC and the copolymer. Samples were prepared for electrophoresis without the use of a reducing agent. The samples were mixed with bromophenol blue (0.01% w/v) solution as the marker. The samples were resolved through a 10% polyacrylamide gel which was performed using a BioRad Mini-Protean II electrophoresis setup at a constant voltage (150 V). The samples were stained using Colloidal Blue Coomassie G-250 (Bio-Rad), and left overnight. Gel images were recorded using a Bio-Rad GS-800 calibrated densitometer. Native BSA was used as a control.
The size and shape of the BSA conjugated copolymer in PBS solution was investigated using DLS and TEM.

[2] = Hydrodynamic diameter and zeta potential of materials and complexes (Example 3); format: physicochemical; conditions: pH 7; ISIS 5132 200 ug/ml, BSA 1 mg/ml, PDMAEMA 0.21 mg/ml
Description: The resulting conjugates were dialysed in 0.05 M PBS (pH5) for 12 h by changing solvent every 2 h. […] All the conditions were kept consistent to the corresponding oligonucleotide samples. In addition, the oligonucleotide transfection efficiency of the PEGMEMA-PDMAEAM cationic block copolymer was investigated. The same protocol was adopted to make the polyion complex micelles from this polymer solution.
The condensation of the oligonucleotide was therefore carried out when the conjugate solution was at pH5 and the oligonucleotide was dissolved in MilliQ water. The albumin-polymer conjugates with a pH of 5 was then slowly added to the solutions of ISIS 5132 with the concentration of 200 μg/ml (ζ=−29.87 mV at pH7). […] After the complex micelle was stable, the system was brought back to pH7. There are several reasons for this: to reduce the aggregation of the micelle, to protect the oligonucleotide and to keep the neutral environment for cells in the afterward cytotoxicity assays.

[3] = Nile Red encapsulation efficiency by Fluorescence Spectroscopy; format: physicochemical; conditions: preliminary polymer-protein aggregates loaded with Nile Red
Description: After the formation of polymer-protein Curcumin carrying micelles of a desirable size, there was a clear need to determine the amount of Curcumin actually encapsulated. Preliminary aggregates were loaded with Nile Red dye to act as a makeshift drug and analysed by Fluorescence Spectroscopy. After comparison to a Calibration curve established from analysis of Nile Red concentrations dissolved in DMSO solvent, the intensity was backcalculated to yield a 30.4% encapsulation efficiency.

cancer cells = conditions: most effective free Curcumin study results; read-out: free Curcumin concentration to bring about 50% cell death; cited from earlier work
[4] = tested on: prostate cancer cell lines; assay: Cytotoxicity against three prostate cancer cell lines (Example 4); format: cell-based; conditions: chosen concentration range
Description: The product was tested for particle size and cytotoxicity against prostate cancer.

P(HPMA13-co-[(AC-DAP)9-Pt8])
PDi [1]: 0.14

ISIS 5132: 20-base antisense phosphorothioate oligodeoxyribonucleotide: 5′TCCCGCCTGTGACATGCATT3′ (DNA dT*dC*dC*dC*dG*dC*dC*dT*dG*dT*dG*dA*dC*dA*dT*dG*dC*dA*dT*dT)
Dh [2]: 0-107 nm
Zeta potential [2]: −29.87 mV

BSA-FITC
Dh number (d/nm) ([1]; 0.1M PBS pH 7, 25° C.): 7.44 nm
PDi [1]: 0.58

CCN(CC)c1ccc2nc3c4ccccc4c(=O)cc-3oc2c1 [Nile Red]
Nile Red encapsulation efficiency [3]: 30.4%

COc1cc(/C=C/C(=O)CC(=O)/C=C/c2ccc(O)c(OC)c2)ccc1O [Curcumin]
pIC50 (cancer cells): 5.00
toxicity [4]: only negligible toxicity
